Test results from patent publication US20230287003A1, “BCL6 INHIBITORS” (Cancer Research Technology Limited, priority 2018, published 2023).

Legend:
[1] = target: BCL6-NCOR2(SMRT) corepressor protein-protein interaction (Homo sapiens (Human), UniProt P41182); experiment: NanoBRET cell assay; format: cell-based; details: for IC50: read-out: NanoBRET cell avg pIC50 (converted); for NanoBRET cell avg pIC50: HEK293T cells co-transfected with BCL6-nanoLuc and NCOR2-HaloTag, 6 hr incubation
From the text: At 20 hr post-transfection, cells were collected, washed with PBS, and exchanged into media containing phenol red-free OptiMEM+4% FBS (Life Technology).

[2] = target: human BCL6 BTB domain (Trx-6×His-BCL6) / BCOR-AF633 peptide (Homo sapiens (Human), UniProt P41182); experiment: HTRF assay; format: binding; details: 1 nM Trx-6×His-BCL6, 300 nM BCOR-AF633 peptide, 2 hours incubation
Description: The % inhibition at each concentration was calculated by normalising FRET ratio to the appropriate high (DMSO with all reagents) and low (DMSO without BCL6) controls.

SMILES	IC50 [1] [nM]	HTRF avg pIC50 (1 nM) [2]	NanoBRET cell avg pIC50 [1]
Cn1c(=O)c2c(c3cc(Nc4nc(N5C6CC7CC5CC(C6)O7)ncc4Cl)ccc31)N[C@@H](C1CC1)CCO2 [Example 5o, (R)-10-((2-(2-oxa-6-azaadamantan-6-yl)-5-chloropyrimidin-4-yl)amino)-2-cyclopropyl-7-methyl-1,2,3,4-tetrahydro-[1,4]oxazepino[2,3-c]quinolin-6(7H)-one]	89.1	7.64	
Cn1c(=O)c2c(c3cc(Nc4nc(N5C6COCC5CC(O)C6)ncc4Cl)ccc31)N[C@@H](C1CC1)CCS2 (stereo partly drawn) [Example 15a, (R)-10-((5-chloro-2-((1R,5S,7S)-7-hydroxy-3-oxa-9-azabicyclo[3.3.1]-nonan-9-yl)pyrimidin-4-yl)amino)-2-cyclopropyl-7-methyl-1,2,3,4-tetrahydro-[1,4]thiazepino[2,3-c]quinolin-6(7H)-one]	28.8	8.12	
CN1CC2CCC(C1)N2c1ncc(Cl)c(Nc2ccc3c(c2)c2c(c(=O)n3C)OCC[C@H](C3CC3)N2)n1 [Example 12i, (R)-10-((5-chloro-2-(3-methyl-3,8-diazabicyclo[3.2.1]octan-8-yl)pyrimidin-4-yl)amino)-2-cyclopropyl-7-methyl-1,2,3,4-tetrahydro-[1,4]oxazepino[2,3-c]quinolin-6(7H)-one]	148	7.81	
Cn1c(=O)c2c(c3cc(Nc4nc(N5C6COCC5CC(O)C6)ncc4Cl)ccc31)N[C@@H](C1CC1)C(F)(F)CO2 (stereo partly drawn) [Example 11c, (S)-10-((5-chloro-2-((1R,5S,7R)-7-hydroxy-3-oxa-9-azabicyclo[3.3.1]-nonan-9-yl)pyrimidin-4-yl)amino)-2-cyclopropyl-3,3-difluoro-7-methyl-1,2,3,4-tetrahydro-[1,4]oxazepino[2,3-c]quinolin-6(7H)-one]		8.93	8.19
Cn1c(=O)c2c(c3cc(Nc4nc(N5C6COCC5CC(O)C6)ncc4Cl)ccc31)N[C@@H](C1CC1)CCO2 (stereo partly drawn) [Example 5n, (R)-10-((5-chloro-2-((1R,5S,7S)-7-hydroxy-3-oxa-9-azabicyclo[3.3.1]nonan-9-yl)pyrimidin-4-yl)amino)-2-cyclopropyl-7-methyl-1,2,3,4-tetrahydro-[1,4]oxazepino[2,3-c]quinolin-6(7H)-one]	36.3	7.97	
Cn1c(=O)c2c(c3cc(Nc4nc(N5C6CCC5CS(=O)(=O)C6)ncc4Cl)ccc31)N[C@@H](C1CC1)CCO2 [Example 12j, (R)-10-((5-chloro-2-(3,3-dioxido-3-thia-8-azabicyclo[3.2.1]octan-8-yl)pyrimidin-4-yl)amino)-2-cyclopropyl-7-methyl-1,2,3,4-tetrahydro-[1,4]oxazepino[2,3-c]quinolin-6(7H)-one]	234	7.78	
Cn1c(=O)c2c(c3cc(Nc4nc(N5C6CCC5COC6)ncc4Cl)ccc31)N[C@@H](C1CC1)C(F)(F)CO2 [Example 12v, (S)-10-((2-(3-oxa-8-azabicyclo[3.2.1]octan-8-yl)-5-chloropyrimidin-4-yl)amino)-2-cyclopropyl-3,3-difluoro-7-methyl-1,2,3,4-tetrahydro-[1,4]oxazepino[2,3-c]quinolin-6(7H)-one]	8.32	8.86	
C[C@H]1COC(=O)c2c(c3cc(Nc4nc(N5C6CCC5CC(F)(F)C6)ncc4Cl)ccc3n(C)c2=O)N1 [Example 8f, (2S)-10-((5-chloro-2-(3,3-difluoro-8-azabicyclo[3.2.1]octan-8-yl)pyrimidin-4-yl)amino)-2,7-dimethyl-2,3-dihydro-[1,4]oxazepino[6,5-c]quinoline-5,6(1H,7H)-dione]	6920	6.67	
Cn1c(=O)c2c(c3cc(Nc4ccnc(Cl)c4Cl)ccc31)N[C@@H](C1CC1)CCO2 [Example 4c]	708	6.85	
O=c1c2c(c3cc(Nc4nc(N5C6CCC5COC6)ncc4Cl)ccc3n1CC1CC1)N[C@@H](C1CC1)CCO2 [Example 5r, (R)-10-((2-(3-oxa-8-azabicyclo[3.2.1]octan-8-yl)-5-chloropyrimidin-4-yl)amino)-2-cyclopropyl-7-(cyclopropylmethyl)-1,2,3,4-tetrahydro-[1,4]oxazepino[2,3-c]quinolin-6(7H)-one]	43.7	7.41	
Cn1c(=O)c2c(c3cc(Nc4nc(N5CCC(F)(F)CC5)ncc4Cl)cnc31)N[C@@H](C1CC1)CCO2 [Example 5s, (R)-10-((5-chloro-2-(4,4-difluoropiperidin-1-yl)pyrimidin-4-yl)amino)-2-cyclopropyl-7-methyl-1,2,3,4-tetrahydro-[1,4]oxazepino[2,3-c][1,8]naphthyridin-6(7H)-one]	234	7.13	
Cn1c(=O)c2c(c3cc(Nc4ccnc(Cl)c4C#N)ccc31)N[C@@H](C1CC1)C(F)(F)CO2 [Example 1v, (S)-2-chloro-4-((2-cyclopropyl-3,3-difluoro-7-methyl-6-oxo-1,2,3,4,6,7-hexahydro-[1,4]oxazepino[2,3-c]quinolin-10-yl)amino)nicotinonitrile]		8.58	7.83
Cn1c(=O)c2c(c3cc(Nc4nc(N5CC6CCC(C5)O6)ncc4Cl)ccc31)N[C@@H](C1CC1)CCO2 [Example 12g, (R)-10-((2-(8-oxa-3-azabicyclo[3.2.1]octan-3-yl)-5-chloropyrimidin-4-yl)amino)-2-cyclopropyl-7-methyl-1,2,3,4-tetrahydro-[1,4]oxazepino[2,3-c]quinolin-6(7H)-one]	776	7.54	
Cn1c(=O)c2c(c3cc(Nc4nc(-n5ccc(C(F)(F)F)n5)ncc4Cl)ccc31)N[C@@H](C1CC1)CCO2 [Example 5a, (R)-10-((5-chloro-2-(3-(trifluoromethyl)-1H-pyrazol-1-yl)pyrimidin-4-yl)amino)-2-cyclopropyl-7-methyl-1,2,3,4-tetrahydro-[1,4]oxazepino[2,3-c]quinolin-6(7H)-one]	617	7.03	
Cn1c(=O)c2c(c3cc(Nc4ccnc(Cl)c4C#N)ccc31)NC(C1CC1)C(F)(F)CO2 (stereo not shown) [Example 1q, 2-chloro-4-((2-cyclopropyl-3,3-difluoro-7-methyl-6-oxo-1,2,3,4,6,7-hexahydro-[1,4]oxazepino[2,3-c]quinolin-10-yl)amino)nicotinonitrile]	30.2	8.35	
O=c1c2c(c3cc(Nc4nc(N5C6COCC5CC(O)C6)ncc4Cl)ccc3n1CC1CC(F)(F)C1)N[C@@H](C1CC1)CCO2 (stereo partly drawn) [Example 5u, (R)-10-((5-chloro-2-((1R,5S,7S)-7-hydroxy-3-oxa-9-azabicyclo[3.3.1]nonan-9-yl)pyrimidin-4-yl)amino)-2-cyclopropyl-7-((3,3-difluorocyclobutyl)methyl)-1,2,3,4-tetrahydro-[1,4]oxazepino[2,3-c]quinolin-6(7H)-one]	28.8	8.08	
COC[C@@H]1CCCN1C(=O)c1cc(Nc2ccc3c(c2)c2c(c(=O)n3C)OCC[C@H](C)N2)c(Cl)cn1 [Example 4b, (S)-10-((5-chloro-2-((S)-2-(methoxymethyl)pyrrolidine-1-carbonyl)pyridin-4-yl)amino)-2,7-dimethyl-1,2,3,4-tetrahydro-[1,4]oxazepino[2,3-c]quinolin-6(7H)-one]	3310	6.70	
